Results as given in patent US20100098641A1, “Monophosphates as Mutual Prodrugs of Anti-Inflammatory Signal Transduction Modulators (AISTM's) and Beta-Agonists for the Treatment of Pulmonary Inflammation and Bronchoconstriction” (priority 2006, published 2010).
Read-outs that look alike come from different tables or passages of the source.

Key:
alkaline phosphatase = alkaline phosphatase (Homo sapiens, UniProt P05187); assay: Conversion of mutual prodrugs to salmeterol and AISTM drug after exposure to alkaline phosphatase in vitro (LCMS); format: in vitro ADME; conditions: for Calculated Compound Final Conc. (μM) at 270 mins.: 270 mins in ALP; for half-life at 0.1 mg/mL / half-life at 111.7 μM: human, alkaline phosphatase (Sigma P-3895) in reaction buffer, read-out: Half Life t1/2; for Example 37 in ALP (Peak Area Ratio) Normalized / Example 37 in ALP (Peak Area Ratio) mean / Example 29 in ALP (Peak Area Ratio) Normalized / Example 29 in ALP (Peak Area Ratio) mean: 37 degrees; for half-life at 111.7 μM: Table 1b
Description: Conversion of the Mutual AISTM-β-Agonist Prodrugs (Described in Examples 29 and 37) to Salmeterol and Respective AISTM Drugs after Exposure to Alkaline Phosphatase In Vitro
Reaction Buffer (pH 7.4, 5 mM tris/1 mM Mg^2+/1 mM Zn^2+) […]
Dissolved ˜2 mg of the mutual prodrug of invention in 10 ml 1:1 acetonitrile/water.
Dissolved ˜2 mg of each MRA and β-agonist in 20 ml 1:1 acetonitrile/water
The stock solutions were mixed in microcentrifuge tubes, as depicted in the following Table:
(§1) The heat block was set at the 37 degrees. Then 0.5 mL of alkaline phosphatase solution was added into 4 preheated Eppendorf tubes. The aliquot 0.5 of prodrug and drug standards were added into preheated Eppendorf tubes. Immediately after vortexing the aliquots of 25 μL of the all reaction solutions were made into the respective 96-well plate positions. The internal standard (75 μl of 500 ng/mL Glyburide) was added into all samples after each aliquots. That procedure was repeated at every 15 minute intervals for ˜4-5 hours.
The 96-well plates were then analyzed using the LCMS technique.
(§2) In the calculation of half life, we assumed that the disappearance of the mutual prodrug of this invention followed first order kinetics. Therefore,
(§3) The area peak ratio of prodrug vs IS was plotted against time first; the peak area ratios of later time points were normalized with the peak area ratio of initial time point (ASAP). The natural log of the normalized ratio was then plotted against time to generate a linear curve. The slope of this linear curve k was used for the following calculation.
Drug concentrations are calculated by normalizing the peak area ration to (t 0). Thus, calculated drug concentrations at any time point=normalized peak area ratio [t (0) mean/t mean]multiplied initial drug concentration. Data (normalized peak area ratio) for the calculations of drug concentrations are listed in Table 1a (ALP activation) and 1b (half-life in ALP and buffer only) for the compound prepared in Example 29, salmeterol, and the ARRY-797 compound (Munson et al., 2004) and Table 2a (ALP activation) and 2b (half-life in ALP and buffer only)) for the compound prepared in Example 37, salmeterol, and the PDE4 inhibitor, CDP-840 (Alexander et al., 2002).

[1] = Half life of mutual prodrug in reaction buffer only (pH 7.4 tris/Mg2+/Zn2+); format: physicochemical; conditions: reaction buffer without alkaline phosphatase, reaction buffer pH 7.4, no ALP
Description: Reaction Buffer (pH 7.4, 5 mM tris/1 mM Mg^2+/1 mM Zn^2+)
as §1, §2, §3
Drug concentrations are calculated by normalizing the peak area ration to (t 0). Thus, calculated drug concentrations at any time point=normalized peak area ratio [t (0) mean/t mean]multiplied initial drug concentration. […]

alkaline phosphatase, sequence (P05187 23-506): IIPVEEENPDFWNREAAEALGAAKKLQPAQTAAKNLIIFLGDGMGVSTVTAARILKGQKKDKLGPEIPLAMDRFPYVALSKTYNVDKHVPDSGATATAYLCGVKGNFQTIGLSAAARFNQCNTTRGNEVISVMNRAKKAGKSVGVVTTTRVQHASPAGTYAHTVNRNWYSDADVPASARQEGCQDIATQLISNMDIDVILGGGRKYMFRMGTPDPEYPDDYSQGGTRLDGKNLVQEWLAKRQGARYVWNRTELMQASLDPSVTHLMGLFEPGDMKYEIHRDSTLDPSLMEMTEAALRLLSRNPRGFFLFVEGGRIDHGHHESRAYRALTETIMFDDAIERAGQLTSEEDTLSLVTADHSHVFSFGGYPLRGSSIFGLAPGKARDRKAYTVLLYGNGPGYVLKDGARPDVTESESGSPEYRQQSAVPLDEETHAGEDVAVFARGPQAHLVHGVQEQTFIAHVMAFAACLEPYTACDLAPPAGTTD

## COc1ccc([C@H](Cc2cc[n+](Cc3ccc(C(O)CNCCCCCCOCCCCc4ccccc4)cc3OP(=O)(O)O)cc2)c2ccccc2)cc1OC1CCCC1 (stereo in doubt) [Example 37, 4-[2-(3-Cyclopentyloxy-4-methoxy-phenyl)-2-phenyl-ethyl]-1-(4-{1-hydroxy-2-[6-(4-phenyl-butoxy)-hexylamino]-ethyl}-2-phosphonooxy-benzyl)-pyridinium]
Alkaline phosphatase; ALP Enzyme Conc. 0.224 mg/mL, Table 2b, first order kinetics assumed
  Half Life t1/2: 0.925 h
Alkaline phosphatase; added initial conc. 117.4 μM in reaction mixture
  Calculated Compound Final Conc. (μM) at 270 mins.: 1.9 µM
Alkaline phosphatase; pH 7.4, ALP Enzyme Conc. 0.224 mg/mL, Table 2b, first order kinetics assumed
  half-life at 0.1 mg/mL: 0.775 h
Alkaline phosphatase; pH 7.4, ALP Enzyme Conc. 0.443 mg/mL, Table 2b, first order kinetics assumed
  half-life at 0.1 mg/mL: 0.41 h
Alkaline phosphatase; time 0 mins
  Example 37 in ALP (Peak Area Ratio) Normalized: 1.0000
  Example 37 in ALP (Peak Area Ratio) mean: 0.8115
Alkaline phosphatase; time 15.0 mins
  Example 37 in ALP (Peak Area Ratio) Normalized: 0.5126
  Example 37 in ALP (Peak Area Ratio) mean: 0.4160
Alkaline phosphatase; time 30.0 mins
  Example 37 in ALP (Peak Area Ratio) Normalized: 0.2705
  Example 37 in ALP (Peak Area Ratio) mean: 0.2195
Alkaline phosphatase; time 45.0 mins
  Example 37 in ALP (Peak Area Ratio) Normalized: 0.1719
  Example 37 in ALP (Peak Area Ratio) mean: 0.1395
Alkaline phosphatase; time 60.0 mins
  Example 37 in ALP (Peak Area Ratio) Normalized: 0.1280
  Example 37 in ALP (Peak Area Ratio) mean: 0.1039
Alkaline phosphatase; time 75.0 mins
  Example 37 in ALP (Peak Area Ratio) Normalized: 0.0974
  Example 37 in ALP (Peak Area Ratio) mean: 0.0791
Alkaline phosphatase; time 90.0 mins
  Example 37 in ALP (Peak Area Ratio) Normalized: 0.0752
  Example 37 in ALP (Peak Area Ratio) mean: 0.0610
Alkaline phosphatase; time 105 mins
  Example 37 in ALP (Peak Area Ratio) Normalized: 0.0630
  Example 37 in ALP (Peak Area Ratio) mean: 0.0511
Alkaline phosphatase; time 120 mins
  Example 37 in ALP (Peak Area Ratio) Normalized: 0.0478
  Example 37 in ALP (Peak Area Ratio) mean: 0.0388
Alkaline phosphatase; time 135 mins
  Example 37 in ALP (Peak Area Ratio) Normalized: 0.0439
  Example 37 in ALP (Peak Area Ratio) mean: 0.0357
Alkaline phosphatase; time 150 mins
  Example 37 in ALP (Peak Area Ratio) Normalized: 0.0322
  Example 37 in ALP (Peak Area Ratio) mean: 0.0262
Alkaline phosphatase; time 165 mins
  Example 37 in ALP (Peak Area Ratio) Normalized: 0.0296
  Example 37 in ALP (Peak Area Ratio) mean: 0.0240
Alkaline phosphatase; time 180 mins
  Example 37 in ALP (Peak Area Ratio) Normalized: 0.0275
  Example 37 in ALP (Peak Area Ratio) mean: 0.0224
Alkaline phosphatase; time 210 mins
  Example 37 in ALP (Peak Area Ratio) Normalized: 0.0227
  Example 37 in ALP (Peak Area Ratio) mean: 0.0184
Alkaline phosphatase; time 240 mins
  Example 37 in ALP (Peak Area Ratio) Normalized: 0.0198
  Example 37 in ALP (Peak Area Ratio) mean: 0.0161
Alkaline phosphatase; time 270 mins
  Example 37 in ALP (Peak Area Ratio) Normalized: 0.0161
  Example 37 in ALP (Peak Area Ratio) mean: 0.0131
[1]; Table 2b
  half-life: 6.42 h

## CC(C)Cn1ncc2cc(Oc3ccc(F)cc3F)c(C(=O)NCC[N+](C)(C)Cc3cc(C(O)CNCCCCCCOCCCCc4ccccc4)ccc3OP(=O)(O)O)cc21 (stereo not shown) [Example 29, (2-{[5-(2,4-Difluoro-phenoxy)-1-isobutyl-1H-indazole-6-carbonyl]-amino}-ethyl)-(5-{-hydroxy-2-[6-(4-phenyl-butoxy)-hexylamino]-ethyl}-2-phosphonooxy-benzyl)-dimethyl-ammonium]
Alkaline phosphatase; added initial conc. 111.7 μM in reaction mixture
  Calculated Compound Final Conc. (μM) at 270 mins.: 57.5 µM
Alkaline phosphatase; pH 7.4, ALP Enzyme Conc. 0.224 mg/mL, first order kinetics assumed
  half-life at 111.7 μM: 5.78 h
Alkaline phosphatase; pH 7.4, ALP Enzyme Conc. 0.443 mg/mL, first order kinetics assumed
  half-life at 111.7 μM: 2.36 h
Alkaline phosphatase; time 0 mins
  Example 29 in ALP (Peak Area Ratio) Normalized: 1.0000
  Example 29 in ALP (Peak Area Ratio) mean: 2.3900
Alkaline phosphatase; time 15.0 mins
  Example 29 in ALP (Peak Area Ratio) Normalized: 0.9289
  Example 29 in ALP (Peak Area Ratio) mean: 2.2200
Alkaline phosphatase; time 30.0 mins
  Example 29 in ALP (Peak Area Ratio) Normalized: 0.9247
  Example 29 in ALP (Peak Area Ratio) mean: 2.2100
Alkaline phosphatase; time 45.0 mins
  Example 29 in ALP (Peak Area Ratio) Normalized: 0.8368
  Example 29 in ALP (Peak Area Ratio) mean: 2.0000
Alkaline phosphatase; time 60.0 mins
  Example 29 in ALP (Peak Area Ratio) Normalized: 0.7552
  Example 29 in ALP (Peak Area Ratio) mean: 1.8050
Alkaline phosphatase; time 75.0 mins
  Example 29 in ALP (Peak Area Ratio) Normalized: 0.7050
  Example 29 in ALP (Peak Area Ratio) mean: 1.6850
Alkaline phosphatase; time 90.0 mins
  Example 29 in ALP (Peak Area Ratio) Normalized: 0.6402
  Example 29 in ALP (Peak Area Ratio) mean: 1.5300
Alkaline phosphatase; time 105 mins
  Example 29 in ALP (Peak Area Ratio) Normalized: 0.6109
  Example 29 in ALP (Peak Area Ratio) mean: 1.4600
Alkaline phosphatase; time 120 mins
  Example 29 in ALP (Peak Area Ratio) Normalized: 0.6402
  Example 29 in ALP (Peak Area Ratio) mean: 1.5300
Alkaline phosphatase; time 135 mins
  Example 29 in ALP (Peak Area Ratio) Normalized: 0.6192
  Example 29 in ALP (Peak Area Ratio) mean: 1.4800
Alkaline phosphatase; time 150 mins
  Example 29 in ALP (Peak Area Ratio) Normalized: 0.5941
  Example 29 in ALP (Peak Area Ratio) mean: 1.4200
Alkaline phosphatase; time 165 mins
  Example 29 in ALP (Peak Area Ratio) Normalized: 0.5879
  Example 29 in ALP (Peak Area Ratio) mean: 1.4050
Alkaline phosphatase; time 180 mins
  Example 29 in ALP (Peak Area Ratio) Normalized: 0.5439
  Example 29 in ALP (Peak Area Ratio) mean: 1.3000
Alkaline phosphatase; time 210 mins
  Example 29 in ALP (Peak Area Ratio) Normalized: 0.5146
  Example 29 in ALP (Peak Area Ratio) mean: 1.2300
Alkaline phosphatase; time 240 mins
  Example 29 in ALP (Peak Area Ratio) Normalized: 0.4916
  Example 29 in ALP (Peak Area Ratio) mean: 1.1750
Alkaline phosphatase; time 270 mins
  Example 29 in ALP (Peak Area Ratio) Normalized: 0.5146
  Example 29 in ALP (Peak Area Ratio) mean: 1.2300
[1]; Table 1b
  half-life: 57.8 h
